Data on two compounds can be found in EP0295827A2, “Use of 24,25-dihydroxy-cholecalciferol in mending bone fractures” (priority 1987, dated 1988).

The structures appear in SMILES notation.

Data set [1] can be described thus: Acute toxicity, single oral administration. The settings on record: mouse, in vivo, ICR male mice, read-out: LD₅₀ value. The procedure: 24,25-(OH)₂-D₃ in ethanol was dissolved in a triglyceride ester of a middle fatty acid so as to have an ethanol concentration of 2 %. The thus-prepared solution was orally administered to 10 ICR male mice (weight: 25 ± 3g). The dosage of 24,25-(OH)₂-D₃ was 100 mg/kg. […] When they were subjected to the biochemical blood test, anatomical examination and pathological histology after they were killed, there was no difference between the treated mice and a controlled group of mice to which only a triglyceride ester of a middle fatty acid containing 2% ethanol had been administered. Since the LD₅₀ value of the oral administration of 24,25-(OH)₂-D₃ was not less than 100 mg/kg, 24,25-(OH)₂-D₃ can be said to be very safe.

For data set [2], the system named is rabbits suffering fracture. In words: Fibula fracture model: strength test (bending test). Particulars: 100 µg/kg oral, average value ± standard deviation. It is filed as in vivo, Japanese white house rabbits. The source says:
The right fibulae of mature house rabbits (Japanese white house rabbits having a weight of about 3 kg) were broken at the central portions under anesthetic with a dental hand drill. Each of the house rabbits was kept in a separate cage and was allowed to take an ordinary solid food (CR-1, produced by Nippon Clare Corp.) and city water freely. 24R,25-(OH)₂-D₃ and 24S,25-(OH)₂-D₃ were dispersed in an aqueous 0.5% CMC solution and orally administered to the house rabbits through a rubber catheter. The experimental groups were as follows:
The respective medicines or aqueous 0.5% CMC solution was administered to these house rabbits for 3 weeks or 6 weeks after the bones had been broken. Thereafter, the house rabbits were killed and the fibulae were taken out for X-ray inspection and a strength test (bending test by DDV-VMF produced by Toyo Baldwin Co., Ltd.).

For the compound `C=C1CCC(O)CC1=CC=C1CCCC2(C)C1CCC2C(C)CCC(O)C(C)(C)O` (stereo not drawn) [24,25-(OH)₂-D₃, 24,25-dihydroxycholecalciferol], the LD50 at 336 h in data set [1] is at least 100 mg/kg.
`C=C1CC[C@H](O)C/C1=C/C=C1\CCC[C@]2(C)[C@@H]([C@H](C)CC[C@H](O)C(C)(C)O)CC[C@@H]12` [24S,25-(OH)₂-D₃]: the Bending strength in data set [2] (3 weeks after) was 15 N/mm; in data set [2] (6 weeks after), 81 ± 37 N/mm.
